Source: ChEMBL document CHEMBL4261593, “Synthesis and antibacterial activity of novel 3-O-arylalkylcarbamoyl-3-O-descladinosyl-9-O-(2-chlorobenzyl)oxime clarithromycin derivatives” (2018)
Values after ≈ are worked out from the molar mass of the structure shown.

Assays:
Format in all cases: functional
Streptococcus pyogenes [1] = assay: Antibacterial activity against erythromycin-susceptible Streptococcus pyogenes 1 after 24 hrs by broth dilution assay; conditions: Streptococcus pyogenes, 1, 24 h
Staphylococcus aureus [2] = assay: Antibacterial activity against erythromycin-susceptible Staphylococcus aureus ATCC 25923 after 24 hrs by broth dilution assay; conditions: ATCC 25923, 24 h
Escherichia coli = assay: Antibacterial activity against penicillin-susceptible Escherichia coli ATCC 25922 after 24 hrs by broth dilution assay; conditions: ATCC 25922, 24 h
Pseudomonas aeruginosa = assay: Antibacterial activity against penicillin-susceptible Pseudomonas aeruginosa ATCC 27853 after 24 hrs by broth dilution assay; conditions: ATCC 27853, 24 h
Bacillus subtilis = assay: Antibacterial activity against penicillin-susceptible Bacillus subtilis ATCC 9372 after 24 hrs by broth dilution assay; conditions: ATCC 9372, 24 h
Staphylococcus aureus [3] = assay: Antibacterial activity against […] Staphylococcus aureus ATCC 29213 after 24 hrs by broth dilution assay; conditions: ATCC 29213, 24 h
Staphylococcus aureus [4] = assay: Antibacterial activity against penicillin-resistant Staphylococcus aureus ATCC 31007 after 24 hrs by broth dilution assay; conditions: ATCC 31007, 24 h
Streptococcus pyogenes [5] = assay: Antibacterial activity against erythromycin-resistant Streptococcus pyogenes 2 after 24 hrs by broth dilution assay; conditions: Streptococcus pyogenes, 2, 24 h
Streptococcus pneumoniae [6] = assay: Antibacterial activity against erythromycin-resistant Streptococcus pneumoniae A22072 expressing mefA gene after 24 hrs by broth dilution assay; conditions: A22072, 24 h
Streptococcus pneumoniae [7] = assay: Antibacterial activity against erythromycin-resistant Streptococcus pneumoniae B1 expressing ermB gene after 24 hrs by broth dilution assay; conditions: B1, 24 h
Streptococcus pneumoniae [8] = assay: Antibacterial activity against erythromycin-resistant Streptococcus pneumoniae AB11 expressing ermB and mefA genes after 24 hrs by broth dilution assay; conditions: AB11, 24 h

Structure (SMILES) | MIC (Streptococcus pyogenes [1]) [µg/mL] | MIC (Staphylococcus aureus [2]) [µg/mL] | MIC (Escherichia coli) [µg/mL] | MIC (Pseudomonas aeruginosa) [µg/mL] | MIC (Bacillus subtilis) [µg/mL] | MIC (Staphylococcus aureus [3]) [µg/mL] | MIC (Staphylococcus aureus [4]) [µg/mL] | MIC (Streptococcus pyogenes [5]) [µg/mL] | MIC (Streptococcus pneumoniae [6]) [µg/mL] | MIC (Streptococcus pneumoniae [7]) [µg/mL] | MIC (Streptococcus pneumoniae [8]) [µg/mL]
CC[C@H]1OC(=O)[C@H](C)[C@@H](OC(=O)NCc2ccccc2Cl)[C@H](C)[C@@H](O[C@@H]2O[C@H](C)C[C@H](N(C)C)[C@H]2O)[C@](C)(OC)C[C@@H](C)/C(=N/OCc2ccccc2Cl)[C@H](C)[C@@H](O)[C@]1(C)O | 4 (≈ 4.46 µM) | 8 (≈ 8.92 µM) | 128 (≈ 143 µM) | 128 (≈ 143 µM) | 2 (≈ 2.23 µM) | 128 (≈ 143 µM) | 4 (≈ 4.46 µM) | 16 (≈ 17.8 µM) | 1 (≈ 1.11 µM) | 128 (≈ 143 µM) | 128 (≈ 143 µM)
CC[C@H]1OC(=O)[C@H](C)[C@@H](OC(=O)NCCc2cccc(OC)c2)[C@H](C)[C@@H](O[C@@H]2O[C@H](C)C[C@H](N(C)C)[C@H]2O)[C@](C)(OC)C[C@@H](C)/C(=N/OCc2ccccc2Cl)[C@H](C)[C@@H](O)[C@]1(C)O | 2 (≈ 2.21 µM) | 8 (≈ 8.82 µM) | 128 (≈ 141 µM) | 128 (≈ 141 µM) | 4 (≈ 4.41 µM) | 128 (≈ 141 µM) | 4 (≈ 4.41 µM) | 8 (≈ 8.82 µM) | 1 (≈ 1.1 µM) | 128 (≈ 141 µM) | 128 (≈ 141 µM)
CCNC(=O)O[C@H]1[C@H](C)[C@@H](O[C@@H]2O[C@H](C)C[C@H](N(C)C)[C@H]2O)[C@](C)(OC)C[C@@H](C)/C(=N/OCc2ccccc2Cl)[C@H](C)[C@@H](O)[C@](C)(O)[C@@H](CC)OC(=O)[C@@H]1C | 2 (≈ 2.5 µM) | 16 (≈ 20 µM) | 128 (≈ 160 µM) | 128 (≈ 160 µM) | 8 (≈ 9.99 µM) | 128 (≈ 160 µM) | 16 (≈ 20 µM) | 32 (≈ 40 µM) | 1 (≈ 1.25 µM) | 128 (≈ 160 µM) | 128 (≈ 160 µM)
CC[C@H]1OC(=O)[C@H](C)[C@@H](OC(=O)NCc2ccccc2OC)[C@H](C)[C@@H](O[C@@H]2O[C@H](C)C[C@H](N(C)C)[C@H]2O)[C@](C)(OC)C[C@@H](C)/C(=N/OCc2ccccc2Cl)[C@H](C)[C@@H](O)[C@]1(C)O | 4 (≈ 4.48 µM) | 16 (≈ 17.9 µM) | 128 (≈ 143 µM) | 128 (≈ 143 µM) | 4 (≈ 4.48 µM) | 128 (≈ 143 µM) | 4 (≈ 4.48 µM) | 16 (≈ 17.9 µM) | 1 (≈ 1.12 µM) | 128 (≈ 143 µM) | 128 (≈ 143 µM)
CC[C@H]1OC(=O)[C@H](C)[C@@H](OC(=O)NCc2ccc(OC)cc2)[C@H](C)[C@@H](O[C@@H]2O[C@H](C)C[C@H](N(C)C)[C@H]2O)[C@](C)(OC)C[C@@H](C)/C(=N/OCc2ccccc2Cl)[C@H](C)[C@@H](O)[C@]1(C)O | 4 (≈ 4.48 µM) | 16 (≈ 17.9 µM) | 128 (≈ 143 µM) | 128 (≈ 143 µM) | 4 (≈ 4.48 µM) | 128 (≈ 143 µM) | 8 (≈ 8.96 µM) | 16 (≈ 17.9 µM) | 2 (≈ 2.24 µM) | 128 (≈ 143 µM) | 128 (≈ 143 µM)
CC[C@H]1OC(=O)[C@H](C)[C@@H](OC(=O)NC2CCCC2)[C@H](C)[C@@H](O[C@@H]2O[C@H](C)C[C@H](N(C)C)[C@H]2O)[C@](C)(OC)C[C@@H](C)/C(=N/OCc2ccccc2Cl)[C@H](C)[C@@H](O)[C@]1(C)O | 2 (≈ 2.38 µM) | 16 (≈ 19 µM) | 128 (≈ 152 µM) | 128 (≈ 152 µM) | 4 (≈ 4.76 µM) | 128 (≈ 152 µM) | 8 (≈ 9.52 µM) | 16 (≈ 19 µM) | 0.5 (≈ 0.595 µM) | 128 (≈ 152 µM) | 128 (≈ 152 µM)
CC[C@H]1OC(=O)[C@H](C)[C@@H](OC(=O)NCC(C)C)[C@H](C)[C@@H](O[C@@H]2O[C@H](C)C[C@H](N(C)C)[C@H]2O)[C@](C)(OC)C[C@@H](C)/C(=N/OCc2ccccc2Cl)[C@H](C)[C@@H](O)[C@]1(C)O | 1 (≈ 1.21 µM) | 8 (≈ 9.66 µM) | 128 (≈ 154 µM) | 128 (≈ 154 µM) | 2 (≈ 2.41 µM) | 128 (≈ 154 µM) | 8 (≈ 9.66 µM) | 16 (≈ 19.3 µM) | 1 (≈ 1.21 µM) | 128 (≈ 154 µM) | 128 (≈ 154 µM)
CC[C@H]1OC(=O)[C@H](C)[C@@H](OC(=O)NCc2ccc(N)cc2)[C@H](C)[C@@H](O[C@@H]2O[C@H](C)C[C@H](N(C)C)[C@H]2O)[C@](C)(OC)C[C@@H](C)/C(=N/OCc2ccccc2Cl)[C@H](C)[C@@H](O)[C@]1(C)O | 1 (≈ 1.14 µM) | 16 (≈ 18.2 µM) | 128 (≈ 146 µM) | 128 (≈ 146 µM) | 4 (≈ 4.56 µM) | 128 (≈ 146 µM) | 16 (≈ 18.2 µM) | 16 (≈ 18.2 µM) | 0.5 (≈ 0.57 µM) | 128 (≈ 146 µM) | 128 (≈ 146 µM)
CC[C@H]1OC(=O)[C@H](C)[C@@H](OC(=O)NCc2ccc(C)cc2)[C@H](C)[C@@H](O[C@@H]2O[C@H](C)C[C@H](N(C)C)[C@H]2O)[C@](C)(OC)C[C@@H](C)/C(=N/OCc2ccccc2Cl)[C@H](C)[C@@H](O)[C@]1(C)O | 2 (≈ 2.28 µM) | 8 (≈ 9.13 µM) | 128 (≈ 146 µM) | 128 (≈ 146 µM) | 2 (≈ 2.28 µM) | 128 (≈ 146 µM) | 4 (≈ 4.56 µM) | 16 (≈ 18.3 µM) | 1 (≈ 1.14 µM) | 128 (≈ 146 µM) | 128 (≈ 146 µM)
